Assay results as given in EP4652998A1, “TREATMENT OF RECEPTOR-INTERACTING PROTEIN KINASE 1- MEDIATED DISEASE WITH ECLITASERTIB” (Technische Universität München, priority 2024, dated 2025).

What was measured:
[1] = tested on: primary human keratinocytes; assay: Cell viability assay (MTS/PMS) after cell death induction with IFN-γ + TNF-α + zVAD + SMAC; format: cell-based; conditions: 4 nM RIPK1 inhibitor (or higher), zVAD [20 µM] and SMAC [1 µM], 24 h, normalized to zVAD + SMAC (100 %), stimulated control 43,6 % ± 7.6 %, n=4
Procedure: (§1) Primary human keratinocytes were obtained from healthy donors by suction blister as reported before (J Allergy Clin Immunol 141, 1320-1333 e1311 (2018)) and donor characteristics are listed in Table S3. Epidermal keratinocytes were cultured in keratinocyte medium (DermaLife Basal Medium supplemented with DermaLife K LifeFactor Kit (Lifeline Cell Technology, LL-0007)) at 37 °C, 5 % CO2 and second- to third-passages were used. At 70-80 % of confluence, keratinocytes were pre-incubated for 1 h with RIPK1 inhibitor (100 nM or as indicated, SANOFI) followed by stimulation with rhIFN-γ (100 ng/ml or as indicated, R&D, #285-IF-100/CF) and rhTNF-α (100 ng/ml or as indicated, R&D, #210_TA/CF) in the presence of zVAD (20 µM, Cell Signaling, #60332), SMAC (1 µM, LC Laboratories, #B-9135) and the RIPK1 inhibitor for 24 h in keratinocyte medium without hydrocortisone.
Cell viability of cultured keratinocytes was determined using CellTiter 96® Aqueous NonRadioactive Cell Proliferation Assay (Promega, G5421) according to manufacturer's instructions. MTS/PMS reagent was used 1:6 diluted in keratinocyte medium without hydrocortisone and incubated for 1 h. Afterwards, supernatants were analysed by ELISA at 490 nm minus 700 nm as reference. To calculate the percentage of cell viability to ZS extinction values were normalized to the control stimulation zVAD + SMAC (100 %).

[2] = tested on: primary human keratinocytes; assay: Multiplex ELISA of cytokines released by keratinocytes after cell death induction; format: cell-based; conditions: 24 h
Procedure: as §1
Cell free supernatants derived from keratinocyte stimulation experiments or lesional TCS from LP/LE patients were analysed for 27 cytokines, chemokines and growth factors using the Bio-Plex Pro Human Cytokine 27-plex Assay (Bio-Rad Laboratories, Hercules, Calif) according to the manufacturer's recommendation.

RIPK1 = molecular target: T1, RIPK1 (Homo sapiens, UniProt Q13546); assay: Western blot of RIPK1-pS166 autophosphorylation in keratinocytes; format: cell-based; conditions: RIPK1-pS166, 100 nM inhibitor, 6 h after IFN-γ [10 ng/ml] + TNF-α [10 ng/ml] + zVAD [20 µM]
T1 construct: Detection of RIPK1-pS 166 in WB analysis of primary human keratinocytes; endogenous in cells; host or cells: primary human keratinocytes from healthy donors (suction blister)
T1 sequence (Q13546 1-671): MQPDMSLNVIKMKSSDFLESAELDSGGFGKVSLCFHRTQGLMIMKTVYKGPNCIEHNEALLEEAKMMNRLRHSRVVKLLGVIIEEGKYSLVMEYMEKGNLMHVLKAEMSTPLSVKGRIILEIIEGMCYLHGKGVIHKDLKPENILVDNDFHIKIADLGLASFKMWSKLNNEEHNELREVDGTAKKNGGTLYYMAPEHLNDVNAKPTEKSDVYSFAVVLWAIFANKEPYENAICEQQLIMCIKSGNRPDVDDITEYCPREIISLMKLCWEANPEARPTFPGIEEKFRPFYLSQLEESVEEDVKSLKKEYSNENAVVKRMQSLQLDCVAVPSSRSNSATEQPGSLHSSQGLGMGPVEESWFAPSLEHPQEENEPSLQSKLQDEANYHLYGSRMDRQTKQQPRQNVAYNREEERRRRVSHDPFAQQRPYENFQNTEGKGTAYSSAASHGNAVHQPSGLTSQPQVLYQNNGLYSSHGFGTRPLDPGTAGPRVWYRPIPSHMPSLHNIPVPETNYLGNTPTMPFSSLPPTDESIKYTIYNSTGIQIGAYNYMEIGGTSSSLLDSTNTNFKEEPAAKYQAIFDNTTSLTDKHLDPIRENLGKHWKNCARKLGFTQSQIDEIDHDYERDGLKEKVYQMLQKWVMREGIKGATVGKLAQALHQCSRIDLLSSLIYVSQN
Procedure: Keratinocytes were lysed in RIPA lysis buffer (Santa Cruz) supplemented with 1 mM sodium orthovanadate, 2mM PMSF and proteinase inhibitor cocktail (1:70) according to the manufacturer's instructions.

[3] = tested on: keratinocyte skin equivalents; assay: Three-dimensional keratinocyte skin equivalents stimulated with LP/LE-TCS, histology and epidermal thickness; format: cell-based, human; conditions: 100 nM inhibitor, LP/LE-TCS 1:10 + zVAD + SMAC, 72 h
Procedure: Three-dimensional keratinocyte skin equivalents were generated as described before Arch Dermatol Res 296, 203-211 (2004)). Briefly, 3.0E^5 primary human keratinocytes were seeded in 500 µL keratinocyte medium with 1.5 mM CaCh into the insert and placed in a well containing the same medium. After two days, keratinocytes were exposed to the air-liquid interface and medium in the surrounding well was supplemented with 50 µg/mL Vitamin C. Nine days after airlift, the skin equivalents were pre-treated for 1 h with RIPK1 inhibitor (100 nM, SANOFI) followed by a stimulation with supernatant mix of lesional T cells from LP and LE patients (1: 10 diluted) in the presence of zVAD (20 µM, Cell Signaling, #60332), SMAC (1 µM, LC Laboratories, #B-9135) and the RIPK1 inhibitor for 72 h. Afterwards, membranes of the fixated skin equivalents were cut out with a scalpel, divided into two pieces, formalin fixed and embedded in paraffin. […] Concentrations of key cytokines in the supernatant mix of lesional T cells were determined by a multiplex ELISA (Biorad) and listed in Table S4. […]

[4] = tested on: keratinocyte skin equivalents; assay: Three-dimensional keratinocyte skin equivalents stimulated with LP/LE-TCS, secreted cytokines in supernatant; format: cell-based, human; conditions: 100 nM inhibitor, 72 h, relative concentration to stimulated control (ZS + LP/LE-TCS) without inhibitor, n=3
Procedure: Three-dimensional keratinocyte skin equivalents were generated as described before Arch Dermatol Res 296, 203-211 (2004)). Briefly, 3.0E^5 primary human keratinocytes were seeded in 500 µL keratinocyte medium with 1.5 mM CaCh into the insert and placed in a well containing the same medium. After two days, keratinocytes were exposed to the air-liquid interface and medium in the surrounding well was supplemented with 50 µg/mL Vitamin C. Nine days after airlift, the skin equivalents were pre-treated for 1 h with RIPK1 inhibitor (100 nM, SANOFI) followed by a stimulation with supernatant mix of lesional T cells from LP and LE patients (1: 10 diluted) in the presence of zVAD (20 µM, Cell Signaling, #60332), SMAC (1 µM, LC Laboratories, #B-9135) and the RIPK1 inhibitor for 72 h. Afterwards, membranes of the fixated skin equivalents were cut out with a scalpel, divided into two pieces, formalin fixed and embedded in paraffin. Primary human lesional T cells were isolated from freshly taken skin biopsies of LP (n=5) and LE (n=3) patients (patient characteristics see Table S 1) by emigration towards an IL-2 gradient followed by expansion with α-CD3/α-CD28 stimulation as described previously (J Invest Dermatol, (2018), Case Rep Pathol 2021, 8819560 (2021)). Supernatants of expanded lesional T cells were generated by 3-day stimulation with 0.75 µg/mL α-CD3 (pre-coated, BD Biosciences) and 0.75 µg/mL soluble α-CD28 (BD Biosciences). A mixture of all 8 lesional supernatants at equimolar ratio was used for stimulation of 3D keratinocyte skin equivalents. Concentrations of key cytokines in the supernatant mix of lesional T cells were determined by a multiplex ELISA (Biorad) and listed in Table S4. Table S4. Composition of lesional LP/LE-TCS mix. Hu = human. Cell free supernatants derived from keratinocyte stimulation experiments or lesional TCS from LP/LE patients were analysed for 27 cytokines, chemokines and growth factors using the Bio-Plex Pro Human Cytokine 27-plex Assay (Bio-Rad Laboratories, Hercules, Calif) according to the manufacturer's recommendation.

C57BL/6 mice = assay: Tnf-α-driven systemic inflammatory response syndrome (SIRS) model, hypothermia; format: in vivo; conditions: 15 min after Tnf-α (0.3 mg/kg)/zVAD i.v., 5 h, Tnf-α/zVAD alone -9.3 ± 0.3, vehicle -1.9 ± 0.5
Procedure: TNF-α driven systemic inflammatory response syndrome (SIRS) model was performed as described before (Immunity 35, 908-918 (2011)). Briefly, male C57BL/6 mice (n=6 per group) were injected into the tail vain with a volume of 125 µl per 25 g mouse of either vehicle (15 % PEG 200; 8.4 % DMSO; 0.6 % NaCl) or a mixture of murine Tnf-α (0.3 mg/kg) and zVAD (6.7 mg/kg) prepared in vehicle. No Tnf-α/zVAD was administered to the vehicle group. 15 min after induction of hypothermia by application of Tnf-α/zVAD mix, animals were orally dosed with RIPK1 inhibitor or GSK`963. Body temperature was monitored every hour using radio-frequency identification (RFID) technology with IPTT-300 transponders that were injected subcutaneously 2-3 days before initiation of the experiment.
Next, the effects of RIPK1 inhibition were assessed in vivo using a murine Tnf-α-driven systemic inflammatory response syndrome model (Immunity 35, 908-918 (2011)). C57BL/6 mice (n=6 per group) were injected of either vehicle (15 % PEG 200; 8.4 % DMSO; 0.6 % NaCL 0.9 %) or a mixture of murine Tnf-α (0.3 mg/kg) and zVAD (16.7 mg/kg) into the tail vein. 15 minutes after induction of hypothermia, animals were orally dosed with the RIPK1 inhibitors SAR443122 or GSK`963, a previously described RIPK1 inhibitor ( Cell Death Discov 1, 15009 (2015)). Body temperature was monitored up to 5 hours using radio-frequency identification technology with IPTT-300 transponders that were injected subcutaneously 2-3 days before initiation of the experiment (Fig. 4A). Animals receiving the Tnf-α/zVAD mixture rapidly responded with a significant decrease of body temperature within 5 hours from 37.3 ± 0.2 °C to 27.9 ± 0.2 °C and a delta temperature of -9.3 ± 0.3 °C (p=0.0002) compared to vehicle (-1.9 ± 0.5 °C). Oral administration of RIPK1 inhibitor led to a dose dependent increase of delta body temperature (1 mg/kg: -8.8 ± 0.5 °C; 5 mg/kg: -7.6 ± 1.2 °C; 15 mg/kg: -3.4 ± 1.3 °C, p=0.0007 to Tnf-α/zVAD) (Fig. 4B).

[5] = tested on: lesional skin of LP patients; assay: Human lesional skin biopsy cultures ex vivo, gene expression by qPCR; format: cell-based; conditions: 1 µM inhibitor, 4 h, LP skin biopsies (n=5), compared to autologous non-treated controls
Procedure: 6 mm punch biopsies of lesional skin of LP patients (n=5) were obtained under local anaesthesia. Biopsies were divided into two parts and treated with the RIPK1 inhibitor (1 µM, SANOFI) or without as untreated control sample for 4 h in T cell media (RPMI 1640 medium with 1 % human serum, 0.1 mM non-essential aminoacids, 2 mM L-Glutamine, 1 mM sodium pyruvate and 100 U/mL penicillin/streptomycin). After stimulation, biopsies were stored in RNALater® solution at -80 °C until RNA preparation. RNA was isolated using QIAzol Lysis Reagent (Qiagen) and miRNeasy Mini Kit (Qiagen) according to manufacturer's protocol. mRNA was transcribed into cDNA with Applied Biosytems High Capacity cDNA Reverse Transcription Kit (Thermo Fisher Scientific). Gene expression was measured on an Applied Biosystems ViiA7 Real-Time PCR system (Thermo Fisher Scientific) using Fast Start Universal SYBRGreen Master Rox (Roche). Primers were ordered from Metabion (http://www.metabion.com) and are listed in supplementary Table S5. Data are shown as relative gene expression to untreated sample using 2^-(ΔΔcT) method. Table S5. Primer sequences. Fw = forward. rv = reverse.

## CN1C(=O)[C@@H](NC(=O)c2nnc(Cc3ccccc3)[nH]2)COc2cccnc21 [SAR443122, 5-Benzyl-N-[(3S)-5-methyl-4-oxo-2,3-dihydropyrido[3,2-b][1,4]oxazepin-3-yl]-4H-1,2,4-triazole-3-carboxamide]
[1]
  viability: 95.1 % ± 0.8
[2]; IFN-γ + TNF-α + zVAD + SMAC, dose dependent, p=0.0050 for 100 nM, n=4
  release of IL-1β: significantly diminished the release of IL-1β to basal levels
[2]; secreted cytokines, 100 ng/ml IFN-γ + TNF-α + zVAD + SMAC, n=3
  IL-1α, IL-1RA, CXCL5, IL-8 (CXCL8), GM-CSF and CCL20: significant reduction
RIPK1
  RIPK1 autophosphorylation: efficiently blocked
[3]
  epidermal architecture: restored the normal epidermal architecture
[3]; stimulated control 102.0 ± 5.1, unstimulated 61.3 ± 5.4, p<0.0001
  epidermal thickness: 80.3 ± 5.1 µm
[4]
  release of CCL20: 29.1 % ± 4.4
  release of II,-1RA: 48.9 % ± 18.0
  release of TNF-α: 70.3 % ± 6.3
[4]; p=0.4757
  release of IL-8: 79.8 % ± 9.6
C57BL/6 mice; 1 mg/kg oral
  delta body temperature: -8.8 ± 0.5 °C
C57BL/6 mice; 5 mg/kg oral
  delta body temperature: -7.6 ± 1.2 °C
C57BL/6 mice; 15 mg/kg oral, p=0.0007 to Tnf-α/zVAD
  delta body temperature: -3.4 ± 1.3 °C
[5]
  downregulation of CCL3: 62%
  downregulation of CXCL9: 57%
  downregulation of CXCL10: 40%
  downregulation of CXCL11: 43%
  downregulation of IFNg: 60%
  downregulation of IL1RA: 65%
  downregulation of TNF: 60%
